Results published in ChEMBL document CHEMBL1153072, “Synthesis and structure-activity relationship of dicationic diaryl ethers as novel potent anti-MRSA and anti-VRE agents” (2009).
Values after ≈ are worked out from the molar mass of the structure shown.

Columns and labels:
Format in all cases: functional
Enterococcus faecalis = assay: Antibacterial activity against vancomycin-resistant Enterococcus faecalis ATCC 51575
Clostridium perfringens = assay: Antibacterial activity against Clostridium perfringens ATCC 10388
Bacillus cereus = assay: Antibacterial activity against Bacillus cereus ATCC 11778
Streptococcus pneumoniae = assay: Antibacterial activity against Streptococcus pneumoniae ATCC 6301
Enterococcus faecium = assay: Antibacterial activity against vancomycin-resistant Enterococcus faecium ATCC 700221
Candida albicans = assay: Antifungal activity against Candida albicans ATCC 90028
Staphylococcus aureus [1] = assay: Antibacterial activity against methicillin-resistant Staphylococcus aureus ATCC 33591
Staphylococcus aureus [2] = assay: Antibacterial activity against multidrug resistant Staphylococcus aureus BAA-39
Bacillus subtilis = assay: Antibacterial activity against Bacillus subtilis ATCC 23857
Staphylococcus aureus [3] = assay: Antibacterial activity against Staphylococcus aureus ATCC 29213
Bacteroides fragilis = assay: Antibacterial activity against […] ATCC 23745
[4] = system: Staphylococcus epidermidis; assay: Antibacterial activity against methicillin-resistant Staphylococcus epidermidis ATCC 51625
[5] = system: Staphylococcus epidermidis; assay: Antibacterial activity against Staphylococcus epidermidis ATCC 12228

Row | SMILES | MIC (Enterococcus faecalis) [µg/mL] | MIC (Clostridium perfringens) [µg/mL] | MIC (Bacillus cereus) [µg/mL] | MIC (Streptococcus pneumoniae) [µg/mL] | MIC (Enterococcus faecium) [µg/mL] | MIC (Candida albicans) [µg/mL] | MIC (Staphylococcus aureus [1]) [µg/mL] | MIC (Staphylococcus aureus [2]) [µg/mL] | MIC (Bacillus subtilis) [µg/mL] | MIC (Staphylococcus aureus [3]) [µg/mL] | MIC (Bacteroides fragilis) [µg/mL] | MIC [4] [µg/mL] | MIC [5] [µg/mL]
1 | N=C(c1ccc2[nH]c(-c3ccc(Oc4ccc(-c5nc6cc(C(=N)N7CCCCCC7)ccc6[nH]5)cc4)cc3)nc2c1)N1CCCCCC1 | 0.5 (≈ 0.768 µM) | 2 (≈ 3.07 µM) | 0.5 (≈ 0.768 µM) | 0.12 (≈ 0.184 µM) | 0.5 (≈ 0.768 µM) | 8 (≈ 12.3 µM) | 0.25 (≈ 0.384 µM) | 0.25 (≈ 0.384 µM) | 0.25 (≈ 0.384 µM) | 0.25 (≈ 0.384 µM) | 4 (≈ 6.15 µM) | 0.25 (≈ 0.384 µM) | 0.12 (≈ 0.184 µM)
2 | CCC(CC)NC(=N)c1ccc2[nH]c(-c3ccc(Oc4ccc(-c5nc6cc(C(=N)NC(CC)CC)ccc6[nH]5)cc4)cc3)nc2c1 | 0.5 (≈ 0.798 µM) | 0.5 (≈ 0.798 µM) | 0.5 (≈ 0.798 µM) | < 0.06 | < 0.06 | 4 (≈ 6.38 µM) | 0.25 (≈ 0.399 µM) | 0.5 (≈ 0.798 µM) | 0.12 (≈ 0.191 µM) | 0.25 (≈ 0.399 µM) | 4 (≈ 6.38 µM) | 0.25 (≈ 0.399 µM) | 0.12 (≈ 0.191 µM)
3 | CC(C)NC(=N)c1ccc2[nH]c(-c3ccc(Oc4ccc(-c5nc6cc(C(=N)NC(C)C)ccc6[nH]5)cc4)cc3)nc2c1 | 0.12 (≈ 0.21 µM) | 0.5 (≈ 0.876 µM) | < 0.06 | < 0.06 | < 0.06 | 1 (≈ 1.75 µM) | 0.12 (≈ 0.21 µM) | 0.5 (≈ 0.876 µM) | < 0.06 | 0.25 (≈ 0.438 µM) | 2 (≈ 3.5 µM) | < 0.06 | < 0.06
4 | CC1(C)S[C@@H]2[C@H](NC(=O)Cc3ccccc3)C(=O)N2[C@H]1C(=O)O [PENICILLIN G] | 4 (≈ 12 µM) | < 0.12 | > 4 | < 0.06 | > 32 | > 32 | > 32 | > 32 | < 0.06 | 1 (≈ 2.99 µM) | 4 (≈ 12 µM) | 32 (≈ 95.7 µM) | 32 (≈ 95.7 µM)
5 | CC(C)NC(=N)c1ccc2[nH]c(-c3ccc(Oc4ccc(-c5nc6cc(C(=N)NC(C)C)ccc6[nH]5)c(Cl)c4)cc3)nc2c1 | 0.12 (≈ 0.198 µM) | 0.25 (≈ 0.413 µM) | 0.12 (≈ 0.198 µM) | ≤ 0.06 | ≤ 0.06 | 2 (≈ 3.3 µM) | 0.12 (≈ 0.198 µM) | 0.5 (≈ 0.826 µM) | ≤ 0.06 | 0.25 (≈ 0.413 µM) | 4 (≈ 6.61 µM) | ≤ 0.06 | ≤ 0.06
6 | N=C(c1ccc2[nH]c(-c3ccc(Oc4ccc(-c5nc6cc(C(=N)N7CCC(N8CCCC8)CC7)ccc6[nH]5)cc4)cc3)nc2c1)N1CCC(N2CCCC2)CC1 | 8 (≈ 10.5 µM) | > 32 | 1 (≈ 1.31 µM) | > 32 | 2 (≈ 2.63 µM) | 16 (≈ 21 µM) | 4 (≈ 5.26 µM) | 4 (≈ 5.26 µM) | 4 (≈ 5.26 µM) | 8 (≈ 10.5 µM) | > 32 | 1 (≈ 1.31 µM) | 1 (≈ 1.31 µM)
7 | CC(C)NC(=N)c1ccc2[nH]c(-c3ccc(Oc4ccc(-c5nc6cc(C(=N)NC(C)C)ccc6[nH]5)nc4)cc3)nc2c1 | 0.12 (≈ 0.21 µM) | 0.5 (≈ 0.875 µM) | 0.12 (≈ 0.21 µM) | ≤ 0.06 | ≤ 0.06 | 4 (≈ 7 µM) | 0.5 (≈ 0.875 µM) | 0.5 (≈ 0.875 µM) | ≤ 0.06 | 0.5 (≈ 0.875 µM) | 32 (≈ 56 µM) | 0.12 (≈ 0.21 µM) | 0.12 (≈ 0.21 µM)
8 | COc1cc(Oc2ccc(-c3nc4cc(C(=N)NC(C)C)ccc4[nH]3)c(Cl)c2)ccc1-c1nc2cc(C(=N)NC(C)C)ccc2[nH]1 | 0.25 (≈ 0.394 µM) | 0.25 (≈ 0.394 µM) | 0.12 (≈ 0.189 µM) | ≤ 0.06 | ≤ 0.06 | 4 (≈ 6.3 µM) | 0.25 (≈ 0.394 µM) | 0.5 (≈ 0.787 µM) | ≤ 0.06 | 0.25 (≈ 0.394 µM) | > 32 | ≤ 0.06 | ≤ 0.06
9 | CC1CCN(C(=N)c2ccc3[nH]c(-c4ccc(Oc5ccc(-c6nc7cc(C(=N)N8CCC(C)CC8)ccc7[nH]6)cc5)cc4)nc3c2)CC1 | 0.5 (≈ 0.768 µM) | 1 (≈ 1.54 µM) | < 0.06 | 0.12 (≈ 0.184 µM) | 0.25 (≈ 0.384 µM) | 4 (≈ 6.15 µM) | 0.25 (≈ 0.384 µM) | 0.25 (≈ 0.384 µM) | 0.12 (≈ 0.184 µM) | 0.25 (≈ 0.384 µM) | 4 (≈ 6.15 µM) | 0.12 (≈ 0.184 µM) | 0.12 (≈ 0.184 µM)
10 | CC(C)NC(=N)c1ccc2[nH]c(-c3ccc(Oc4ccc(-c5nc6cc(C(=N)NC(C)C)ccc6[nH]5)cn4)cc3)nc2c1 | 0.25 (≈ 0.437 µM) | 2 (≈ 3.5 µM) | 0.12 (≈ 0.21 µM) | 0.12 (≈ 0.21 µM) | ≤ 0.06 | 2 (≈ 3.5 µM) | 0.5 (≈ 0.875 µM) | 1 (≈ 1.75 µM) | 0.25 (≈ 0.437 µM) | 1 (≈ 1.75 µM) | > 32 | 0.12 (≈ 0.21 µM) | 0.12 (≈ 0.21 µM)
11 | O=C(O)c1cn(C2CC2)c2cc(N3CCNCC3)c(F)cc2c1=O [CIPROFLOXACIN] | 0.5 (≈ 1.51 µM) | – | ≤ 0.12 | – | > 64 | – | ≤ 0.12 | 8 (≈ 24.1 µM) | ≤ 0.12 | 0.5 (≈ 1.51 µM) | 0.5 (≈ 1.51 µM) | ≤ 0.12 | ≤ 0.12
